Reference: patent US20200163984A1, “USE OF ISOVALERYL SPIRAMYCIN I, II AND/OR III IN MANUFACTURING MEDICAMENT FOR TREATING AND/OR PREVENTING TUMOR, AND MEDICAMENT” (SHENYANG FUYANG PHARMACEUTICAL TECHNOLOGY CO., LTD., priority 2017, published 2020)

Legend:
[1] = test system: transplanted tumor of HL60 cells; experiment: HL-60 transplanted tumor in nude mice; settings: for Tumor Volume (mm3) (d30): d 30
Experimental: (§1) HL-60 cells in a logarithmic growth phase were taken and subjected to a trypan blue exclusion experiment showing that the cell viability was more than 95%, then the cells were subjected to trypsinization, centrifugation, and supernatant removal. Then cell concentration was adjusted to 1×10^7/ml with matrigel, then each nude mouse was inoculated subcutaneously with 0.2 ml of cells at its right armpit and recorded as the first day of inoculation. When the tumor grows to be greater than or equal to 100 mm^3, the mice were randomly divided into 11 groups with 6 mice in each group: isovaleryl spiramycin I groups with doses of 25, 50 and 100 mg/kg, isovaleryl spiramycin II groups with doses of 25, 50 and 100 mg/kg, and isovaleryl spiramycin III groups with doses of 25, 50 and 100 mg/kg. Each group was continuously administered intragastrically for 30 days with a dose of 20 ml/kg. The mice were sacrificed the next day after drug withdrawal and the indicators were tested. The long diameter and short diameter of the tumor, and the weight of each mouse were recorded every 3 days from drug administration to nude mouse sacrifice.
(§2) The body weight of the nude mice and the long diameter (a) and short diameter (b) of the transplanted tumor were measured every 3 days, and the tumor volume (v), relative tumor volume (RTV) and relative tumor proliferation rate (T/C) are calculated respectively according to the following formulas, wherein V=a×b^2/2; RTV=V/V0 (V0 is the tumor volume before administration, V is the tumor volume before sacrifice), and T/C (%)=treatment group RTV/model control group RTV×100%.
(§3) Each mouse was weighed and sacrificed. After the tumor was completely stripped off from the body of the mouse, the non-tumor tissues such as blood stains and fat were removed to weigh the tumor and calculate the tumor growth inhibition rate. The average tumor weight of each group of mice is used as an indicator of efficacy. Tumor growth inhibition rate (%)=(1−the average tumor weight of the treatment group/the average tumor weight of the model group)×100%.

[2] = test system: transplanted tumor of human non-small cell lung cancer cell A549; experiment: A549 transplanted tumor in nude mice; settings: for Tumor Volume (mm3) (d 1): d1
Experimental: as §1, with “A549 cells in” for “HL-60 cells in”, “each group: a model group, a cyclophosphamide group, isovaleryl spiramycin” for “each group: isovaleryl spiramycin”, “and the body weight of” for “and the weight of”
as §2, §3

[3] = test system: transplanted tumor of human thyroid cancer cell TPC-1; experiment: TPC-1 transplanted tumor in nude mice; settings: for Tumor Volume (mm3) (d30): d 30
Experimental: as §1, with “Then cell” for “HL-60 cells in a logarithmic growth phase were taken and subjected to a trypan blue exclusion experiment showing that the cell viability was more than 95%, then the cells were subjected to trypsinization, centrifugation, and supernatant removal. Then cell”, “and the body weight of” for “and the weight of”
as §2, §3

[4] = HL-60, high dose (100 mg/kg in method) i.g. 30 days
[5] = HL-60, low dose (25 mg/kg in method) i.g. 30 days
[6] = HL-60, medium dose (50 mg/kg in method) i.g. 30 days
[7] = A549, high dose (100 mg/kg in method) i.g. 30 days
[8] = A549, low dose (25 mg/kg in method) i.g. 30 days
[9] = A549, medium dose (50 mg/kg in method) i.g. 30 days
[10] = TPC-1, high dose (100 mg/kg in method) i.g. 30 days
[11] = TPC-1, low dose (25 mg/kg in method) i.g. 30 days
[12] = TPC-1, medium dose (50 mg/kg in method) i.g. 30 days

mouse weight compared with the model group ([1]; mouse, in vivo): no significant changes | mouse weight compared with the model group ([2]; mouse, in vivo): no significant changes | mouse weight compared with the model group ([3]; mouse, in vivo): no significant changes
Structure (SMILES): COC1C(OC(C)=O)CC(=O)OC(C)CC=CC=CC(OC2CCC(N(C)C)C(C)O2)C(C)CC(CC=O)C1OC1OC(C)C(OC2CC(C)(O)C(OC(=O)CC(C)C)C(C)O2)C(N(C)C)C1O (stereo not drawn) [Isovaleryl spiramycin II, isovaleryl spiramycin II]
Relative Tumor Proliferation Rate (T/C) [1, 4]: 41.36% | tumor growth inhibition rate [1, 4]: 51.81% | Relative Tumor Proliferation Rate (T/C) [1, 5]: 75.39% | tumor growth inhibition rate [1, 5]: 15.92% | tumor volume and relative tumor volume compared with the model group ([1]; HL-60, low, medium and high doses, P<0.05): significantly lower | Relative Tumor Proliferation Rate (T/C) [1, 6]: 65.18% | tumor growth inhibition rate [1, 6]: 29.48% | Inhibition Rate (%) ([1]; dose 25 mg/kg): 15.92% | Relative Tumor Proliferation Rate (T/C) ([1]; dose 25 mg/kg): 75.39% | Relative Tumor Volume (RTV) ([1]; dose 25 mg/kg): 8.48 ± 1.37 | Tumor Weight ([1]; dose 25 mg/kg): 1.90 ± 0.33 g | Tumor Volume (mm3) (d 1) ([1]; dose 25 mg/kg): 189.51 ± 28.58 mm3 | Tumor Volume (mm3) (d30) ([1]; dose 25 mg/kg): 1596.76 ± 293.76 mm3 | Inhibition Rate (%) ([1]; dose 50 mg/kg): 29.48% | Relative Tumor Proliferation Rate (T/C) ([1]; dose 50 mg/kg): 65.18% | Relative Tumor Volume (RTV) ([1]; dose 50 mg/kg): 7.33 ± 2.36 | Tumor Weight ([1]; dose 50 mg/kg): 1.60 ± 0.45 g | Tumor Volume (mm3) (d 1) ([1]; dose 50 mg/kg): 184.06 ± 32.38 mm3 | Tumor Volume (mm3) (d30) ([1]; dose 50 mg/kg): 1344.04 ± 466.62 mm3 | Inhibition Rate (%) ([1]; dose 100 mg/kg): 51.81% | Relative Tumor Proliferation Rate (T/C) ([1]; dose 100 mg/kg): 41.36% | Relative Tumor Volume (RTV) ([1]; dose 100 mg/kg): 4.65 ± 1.77 | Tumor Weight ([1]; dose 100 mg/kg): 1.09 ± 0.34 g | Tumor Volume (mm3) (d 1) ([1]; dose 100 mg/kg): 184.80 ± 33.56 mm3 | Tumor Volume (mm3) (d30) ([1]; dose 100 mg/kg): 834.34 ± 308.27 mm3 | Body Weight (g) (d1) ([1]; mouse, in vivo, 25 mg/kg): 20.78 ± 1.31 g | Body Weight (g) (d30) ([1]; mouse, in vivo, 25 mg/kg): 20.59 ± 1.54 g | Body Weight (g) (d1) ([1]; mouse, in vivo, 50 mg/kg): 21.01 ± 1.20 g | Body Weight (g) (d30) ([1]; mouse, in vivo, 50 mg/kg): 20.72 ± 1.29 g | Body Weight (g) (d1) ([1]; mouse, in vivo, 100 mg/kg): 20.65 ± 1.27 g | Body Weight (g) (d30) ([1]; mouse, in vivo, 100 mg/kg): 20.32 ± 1.55 g | Relative Tumor Proliferation Rate (T/C) [2, 7]: 39.42% | tumor growth inhibition rate [2, 7]: 60.19% | Relative Tumor Proliferation Rate (T/C) [2, 8]: 83.41% | tumor growth inhibition rate [2, 8]: 20.73% | tumor volume and relative tumor volume compared with the model group ([2]; A549, low, medium and high doses, P<0.05): significantly lower | Relative Tumor Proliferation Rate (T/C) [2, 9]: 58.75% | tumor growth inhibition rate [2, 9]: 31.87% | Inhibition Rate (%) ([2]; A549 nude mice, 25 mg/kg): 20.73% | Relative Tumor Proliferation Rate (T/C) ([2]; A549 nude mice, 25 mg/kg): 83.41% | Relative Tumor Volume (RTV) ([2]; A549 nude mice, 25 mg/kg): 13.54 ± 1.07 | Tumor Weight ([2]; A549 nude mice, 25 mg/kg): 1.90 ± 0.31 g | Tumor Volume (mm3) (d 1) ([2]; A549 nude mice, 25 mg/kg): 119.67 ± 7.25 mm3 | Tumor Volume (mm3) (d30) ([2]; A549 nude mice, 25 mg/kg): 1614.91 ± 65.26 mm3 | Inhibition Rate (%) ([2]; A549 nude mice, 50 mg/kg): 31.87% | Relative Tumor Proliferation Rate (T/C) ([2]; A549 nude mice, 50 mg/kg): 58.75% | Relative Tumor Volume (RTV) ([2]; A549 nude mice, 50 mg/kg): 9.54 ± 2.62 | Tumor Weight ([2]; A549 nude mice, 50 mg/kg): 1.63 ± 0.32 g | Tumor Volume (mm3) (d 1) ([2]; A549 nude mice, 50 mg/kg): 117.96 ± 4.88 mm3 | Tumor Volume (mm3) (d30) ([2]; A549 nude mice, 50 mg/kg): 1129.10 ± 326.54 mm3 | Inhibition Rate (%) ([2]; A549 nude mice, 100 mg/kg): 60.19% | Relative Tumor Proliferation Rate (T/C) ([2]; A549 nude mice, 100 mg/kg): 47.94% | Relative Tumor Volume (RTV) ([2]; A549 nude mice, 100 mg/kg): 7.78 ± 2.03 | Tumor Weight ([2]; A549 nude mice, 100 mg/kg): 0.95 ± 0.42 g | Tumor Volume (mm3) (d 1) ([2]; A549 nude mice, 100 mg/kg): 116.96 ± 6.56 mm3 | Tumor Volume (mm3) (d30) ([2]; A549 nude mice, 100 mg/kg): 917.10 ± 270.86 mm3 | Body Weight (g) (d1) ([2]; mouse, in vivo, 25 mg/kg): 20.91 ± 1.07 g | Body Weight (g) (d30) ([2]; mouse, in vivo, 25 mg/kg): 21.32 ± 1.88 g | Body Weight (g) (d1) ([2]; mouse, in vivo, 50 mg/kg): 20.03 ± 1.88 g | Body Weight (g) (d30) ([2]; mouse, in vivo, 50 mg/kg): 12.92 ± 1.68 g | Body Weight (g) (d1) ([2]; mouse, in vivo, 100 mg/kg): 21.71 ± 1.94 g | Body Weight (g) (d30) ([2]; mouse, in vivo, 100 mg/kg): 12.42 ± 1.37 g | Relative Tumor Proliferation Rate (T/C) [3, 10]: 38.61% | tumor growth inhibition rate [3, 10]: 62.04% | Relative Tumor Proliferation Rate (T/C) [3, 11]: 86.15% | tumor growth inhibition rate [3, 11]: 20.91% | tumor volume and relative tumor volume compared with the model group ([3]; TPC-1, low, medium and high doses, P<0.05): significantly lower | Relative Tumor Proliferation Rate (T/C) [3, 12]: 59.08% | tumor growth inhibition rate [3, 12]: 31.61% | Inhibition Rate (%) ([3]; dose 25 mg/kg): 20.91% | Relative Tumor Proliferation Rate (T/C) ([3]; dose 25 mg/kg): 86.15% | Relative Tumor Volume (RTV) ([3]; dose 25 mg/kg): 14.18 ± 1.70 | Tumor Weight ([3]; dose 25 mg/kg): 1.91 ± 0.33 g | Tumor Volume (mm3) (d 1) ([3]; dose 25 mg/kg): 119.12 ± 3.42 mm3 | Tumor Volume (mm3) (d30) ([3]; dose 25 mg/kg): 1689.63 ± 210.37 mm3 | Inhibition Rate (%) ([3]; dose 50 mg/kg): 31.61% | Relative Tumor Proliferation Rate (T/C) ([3]; dose 50 mg/kg): 59.08% | Relative Tumor Volume (RTV) ([3]; dose 50 mg/kg): 9.72 ± 3.02 | Tumor Weight ([3]; dose 50 mg/kg): 1.65 ± 0.32 g | Tumor Volume (mm3) (d 1) ([3]; dose 50 mg/kg): 118.54 ± 6.49 mm3 | Tumor Volume (mm3) (d30) ([3]; dose 50 mg/kg): 1148.57 ± 344.78 mm3 | Inhibition Rate (%) ([3]; dose 100 mg/kg): 62.04% | Relative Tumor Proliferation Rate (T/C) ([3]; dose 100 mg/kg): 38.61% | Relative Tumor Volume (RTV) ([3]; dose 100 mg/kg): 6.36 ± 2.38 | Tumor Weight ([3]; dose 100 mg/kg): 0.92 ± 0.42 g | Tumor Volume (mm3) (d 1) ([3]; dose 100 mg/kg): 117.30 ± 6.48 mm3 | Tumor Volume (mm3) (d30) ([3]; dose 100 mg/kg): 754.42 ± 320.69 mm3 | Body Weight (g) (d1) ([3]; mouse, in vivo, 25 mg/kg): 20.54 ± 1.45 g | Body Weight (g) (d30) ([3]; mouse, in vivo, 25 mg/kg): 21.16 ± 1.37 g | Body Weight (g) (d1) ([3]; mouse, in vivo, 50 mg/kg): 20.07 ± 1.13 g | Body Weight (g) (d30) ([3]; mouse, in vivo, 50 mg/kg): 12.45 ± 1.63 g | Body Weight (g) (d1) ([3]; mouse, in vivo, 100 mg/kg): 21.78 ± 1.53 g | Body Weight (g) (d30) ([3]; mouse, in vivo, 100 mg/kg): 12.11 ± 1.20 g
